Results published in US20260071190A1, “SARS CORONAVIRUS 2 R[…] […] GENES, DERIVED FROM GH CLADE SARS CORONAVIRUS 2 OF KOREAN ISOLATE, AND THE PRODUCTION METHOD THEREFOR” (RpexBio, Inc., priority 2022, published 2026).

System: rSARS-COV-2/YS006_Nluc P2 virus (YS006_spike)
Format: cell-based, SARS coronavirus 2

## CC(C)(C)[C@H](NC(=O)C(F)(F)F)C(=O)N1C[C@H]2[C@@H]([C@H]1C(=O)N[C@H](C#N)C[C@@H]1CCNC1=O)C2(C)C [PF-07321332]
  antiviral activity against YS006_spike reporter virus: high antiviral activity
A549_ACE2 cells versus Calu-3 and Vero E6, FIG. 6B
  inhibitory effect compared among cell lines: strongest inhibitory effect
